Consider 4 compounds from article PMC12314892, “Macrocyclic Phage Display for Identification of Selective Protease Substrates” (Journal of the American Chemical Society, 2025).

“Also recorded” adds a separate entry of the source. *1 amine or outer side, *2 acyl side, *3 side chain or, on linkers, in order; H or OH if unused. Where a SMILES comes first, the peptide text is derived from it. Bridges are numbered along the chain shown (N, C = ends). The star is where a group is joined. X1 = NC(=O)Cc1cc(=O)oc2cc(NC(=O)[C@@H]3CCCN3C(=O)Cn3nc(C[*:1])cc3C[*:2])ccc12; X2 = NC(=O)Cc1cc(=O)oc2cc(NC(=O)[C@@H]3CCCN3C(=O)Cn3nc(C[*:2])cc3C[*:1])ccc12; AMC = Cc1cc(=O)oc2cc(N*)ccc12; Cbz = O=C(OCc1ccccc1)*

In this experiment the test system is HEK293 Tet-Off cells with inducible FAPα expression. The experiment is described as follows: Live-cell substrate assay. In kind it is cell-based. The note with it: triplicate; for substrate cleavage in cells (mean slope RFU per minute), in words: HEK293 FAP+ vs doxycycline-suppressed FAP- cells, 1400 cells per well in PBS, 200 μM substrate, 37 °C, 90 min; for substrate cleavage in cells after inhibitor pre-treatment, in words: cells pre-treated 30 min at 37 °C with 1 μM UAMC-1100 (FAPα) or VbP (DPP4) before 200 μM substrate. Here is the method: 7.5. The following commercial substrates were used: zGP-AMC (Bachem,Catalog No.: […]
conducted in Greiner Bio-One black microplates of 384 wells and polystyrene F-bottom (Catalog No.: 784076). All compounds were dissolved in DMSO at a concentration of 10 mM and then diluted into the respective buffer to the desired final concentration. […]
ACC substrates. […]
HEK tet-off FAPα stable clonal cell line, received from the group of Jan Konvalinka, IOCB Prague, was cultured in IMDM medium with L-glutamine (Sigma-Aldrich, 51471C-1000ML), and supplemented with 10% […] and antibiotics – Geneticin G418 400 μg/ml (Roche, G418-RO) and Puromycin 0.5 μg/ml (Corning, MT61385RA) or Doxycycline 100 ng/ml (Sigma-Aldrich, D9891-1G). In general, cells were passaged at least two times after thawing before their use in cellular […]
assays. FAPα expression was suppressed with Doxycycline for at least a week prior to an […]
Live-cell substrate assay
Cells were grown to near confluency and harvested via trypsinization. After dissociation, extra media with serum was added to prevent further trypsinization. To collect the cells, those were centrifuged for 3 min at 500G and media removed. Cells were washed a total of three times with PBS and resuspended in PBS to 100 cells per μL. To perform the activity assay 14 μL of suspended cells in PBS (100 cell/μL) were plated in a black 384-well low volume “V” bottom plate (total of 1400 cells per well) and pre-treated with 2 μL of either vehicle or inhibitors (1 μM final concentration) for 30 min at 37 °C. DMSO was used as the vehicle. The inhibitors used were […]
DPP4 activity, respectively, in addition to other homologous proteases. After this time, 4 μL of the desired substrate was added to a final concentration of 200 μM and the fluorescence was recorded immediately. Fluorescence was measured using a Cytation 3 plate reader (BioTek). All experiments have at least three technical replicates. All assays were conducted at 37°C for 90 min, unless otherwise noted. Fluorescence measurements were performed at ex/em, 355/460 nm for ACC substrates. The substrates velocity was quantified by calculating the slope of the linear […]
3.2 Phage Display Methodology
The library and panning protocol was adapted from Ekanayake et. al.2 […]
The phage encoded library has the terminal sequence AACXXXXXXXCG. The complexity of the library is 1x109. In general a minimum of 5x1010 PFU were used for panning to have 50 copies of each sequence represented at the beginning of panning.
General reagents for phage display
15.5 g of 2X YT broth (1.6% tryptone, 1.0% yeast extract, 0.5% sodium chloride) 500mL of MilliQ water in a 2L flask, autoclaved.
YT media with 30 μg/mL final concentration of chloramphenicol (CA)
15.5 g of 2X YT broth (1.6% tryptone, 1.0% yeast extract, 0.5% sodium chloride) 500 mL of MilliQ water in a 2L flask, autoclaved. Let it cool to room temperature. Add 500 μL of 30 mg/mL chloramphenicol in ethanol.
Agar plates of YT media with chloramphenicol (30 μg/mL CA)
Weight out 31 g of 2X YT broth (1.6% tryptone, 1.0% yeast extract, 0.5% sodium chloride), 15 g of agar and add 1000 mL of MilliQ water. Autoclave. Let it cool down to approximately 55°C and add 1000 μL of 30 mg/mL CA in ethanol. Mix and pour into plates under sterile conditions.

As to `CC(C)C[C@@H]1NC(=O)[C@H](CC(N)=O)NC(=O)[C@H](CCC(N)=O)NC(=O)[C@H](Cc2ccccc2)NC(=O)[C@H](CO)NC(=O)[C@H](C(C)C)NC(=O)[C@@H](N)CSCc2cc(nn2CC(=O)N2CCC[C@H]2C(=O)Nc2ccc3c(CC(N)=O)cc(=O)oc3c2)CSC[C@@H](C(=O)NCC(N)=O)NC(=O)[C@H](CC(=O)O)NC1=O` [FAP-33.2] (H-CVSFQNLDCG-NH2; linker 1-9 via X2; N-terminus assumed), the “substrate cleavage in cells (mean slope RFU per minute), in words” value is “no activity in cells”.
For `Cc1cc(=O)oc2cc(NC(=O)[C@@H]3CCCN3C(=O)CN)ccc12` [GP-AMC] (H-Gly-Pro-{AMC}), the “substrate cleavage in cells after inhibitor pre-treatment, in words” value is listed as “produced signals in HEK cells even when target proteases were chemically inhibited”.
For the compound `Cc1cc(=O)oc2cc(NC(=O)[C@@H]3CCCN3C(=O)CNC(=O)OCc3ccccc3)ccc12` [zGP-AMC] (Cbz-Gly-Pro-{AMC}), the “substrate cleavage in cells after inhibitor pre-treatment, in words” value is listed as “processed in the presence of both inhibitors; also recorded: produced signals in HEK cells even when target proteases were chemically inhibited”.
`CC(C)[C@@H]1NC(=O)[C@@H](N)CSCc2cc(n(CC(=O)N3CCC[C@H]3C(=O)Nc3ccc4c(CC(N)=O)cc(=O)oc4c3)n2)CSC[C@@H](C(=O)NCC(N)=O)NC(=O)[C@H](CC(=O)O)NC(=O)[C@H](C)NC(=O)[C@H](CC(N)=O)NC(=O)[C@H](CCC(N)=O)NC(=O)[C@H](Cc2ccccc2)NC(=O)[C@H](CO)NC1=O` [FAP-33.2A6] (H-CVSFQNADCG-NH2; linker 1-9 via X1; N-terminus assumed): the “substrate cleavage in cells (mean slope RFU per minute), in words” value is “selectively cleaved in FAP+ cells” and the “substrate cleavage in cells after inhibitor pre-treatment, in words” value is listed as “hydrolysis suppressed by the FAPα inhibitor UAMC1100 but not by the DPP4 inhibitor VbP”.
